Test results from patent US20200323898A1, “COMPOSITIONS AND METHODS FOR TREATING ACUTE MYELOID LEUKEMIA” (MEMORIAL SLOAN KETTERING CANCER CENTER, priority 2017, published 2020).
“Also recorded” adds a separate entry of the source. Like-named read-outs stand apart in the source and are kept apart here.

Tests used:
[1] = tested on: Nras(G12D)/MLL-AF9 leukemic cells; test: Viability of Nras(G12D)/MLL-AF9 leukemic cells cultured with AOA or myriocin; type: cell-based, mouse; settings: day 3 (FIG. 33A, 34A)
[2] = tested on: Nras(G12D)/MLL-AF9 leukemia; test: AML mouse model: sub-lethally irradiated mice transplanted with Nras(G12D)/MLL-AF9 cells, compound treatment; type: in vivo; settings: for animal survival / leukemia disease progression (luciferase signal): daily dosing vs PBS control, isoniazid 90 mg/kg intraperitoneally
Text: PDXK shRNAs were cloned into a doxycycline inducible H2 vector (D9891-25G, Sigma-Aldrich, St. Louis, Mo.). Leukemic cells were infected with viruses encoding shRNAs targeting Renilla luciferase or PDXK, followed by either in vitro culture or transplantation. For in vitro culture experiments, doxycycline was supplemented into culture medium, and the percentage of GFP^+ cells was monitored. For in vivo AML mouse model experiments, the dietary feed of the mice was supplemented with doxycycline, and luciferase expression levels were monitored. For in vivo drug efficacy experiments, leukemic cells were transplanted into sub-lethally irradiated mice. Control PBS or isoniazid (90 mg/kg) was injected 6 hours after transplant and then daily into the transplant containing mice, and luciferase expression levels were monitored. High-performance liquid chromatography-mass spectrometry (HPLC-MS) was performed as previously described in A. M. Intlekofer et al., Nat Chem Biol 13, 494-500 (2017).
For isoniazid injection experiment, Nras(G12D)/MLL-AF9 leukemic cells were collected and resuspended in PBS at a concentration of 5 million/ml. 5-6 weeks old B6-LY5 mice (Charles River Labs, Wilmington Mass.) were sublethally irradiated (450 cGy) and transplanted with 1 million leukemic cells through tail vein injection. PBS or 90 mg/kg isoniazid were intraperitoneally injected daily.
The leukemia disease progress was monitored by in vivo bioluminescent imaging using IVIS Lumina image system (Xenogen) every 3 days. Before imaging, all mice were anesthetized with 2% isoflurane, and anesthesia was also maintained during the image acquisition inside Xenogen dark chamber. 300 mg/kg D-Luciferin (Gold Biotechnology Olivette, Mo.) in PBS at 15 mg/ml was intraperitoneally injected ˜12 minutes before image capturing. The bioluminescence was acquired and quantitatively analyzed by the Living Image software.

human leukemic cells [3] = test: Viability of human leukemic cell lines cultured with AOA; type: cell-based; settings: human Molm13, Thp1, ml2, Nomo1, Semk2, Kasumi leukemic cells, day 3 (FIG. 34B-34G)
PDXK = target: T1, PDXK (Homo sapiens, UniProt O00764); test: Intracellular PLP levels (PDXK inhibition) in human Molm13 leukemic cells; type: cell-based; settings: human Molm13 leukemic cells (FIG. 17B, 18B)
T1 construct: endogenous in cells; host or cells: human Molm13 (MOLM13) AML cells
T1 sequence (O00764 1-312): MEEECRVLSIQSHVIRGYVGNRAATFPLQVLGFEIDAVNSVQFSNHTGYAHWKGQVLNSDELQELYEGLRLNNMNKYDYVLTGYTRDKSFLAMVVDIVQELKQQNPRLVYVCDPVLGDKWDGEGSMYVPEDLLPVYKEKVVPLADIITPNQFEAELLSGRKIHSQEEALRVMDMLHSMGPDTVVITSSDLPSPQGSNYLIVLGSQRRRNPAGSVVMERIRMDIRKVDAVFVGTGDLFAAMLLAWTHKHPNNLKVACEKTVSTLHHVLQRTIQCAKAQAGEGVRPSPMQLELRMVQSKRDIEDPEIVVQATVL
Experimental: (§1) LC-MS grade solvents were purchased from Thermo Fisher Scientific (Waltham, Mass.), metabolite standards were purchased from Sigma (St. Louis, Mo.) unless stated otherwise. Nras(G12D)/MLL-AF9 cells infected with viruses encoding Pdxk shRNAs were harvested after 5 days of doxycycline induction. Human MOLM13 cells infected with viruses encoding Pdxk sgRNAs were harvested at day 11 post infection. Nras(G12D)/MLL-AF9 cells or MOLM13 cells were treated with indicated concentrations of isoniazid and harvested after 5 days treatment.
In each case, 2 million cells were collected by centrifugation at 440×g, media was aspirated and 1004 of ice-cold 10% trichloroacetic acid with or without 100 ng/mL d3-pyridoxal (d3-PL), d3-pyridoxine (d3-PN), d3-pyridoxamine (d3-PM), d3-pyridoxal phosphate (d3-PLP) (IsoSciences LLC, Ambler Pa.) was added for metabolite extraction. For experiments involving isoniazid treatment, cells were washed once with PBS to remove residual drug and minimize post-lysis reactions between isoniazid and PLP, which was confirmed by monitoring the d3-PLP internal standard. After overnight incubation at −80° C., samples were vortexed and transferred to 1.7 mL conical eppendorf tubes and centrifuged at 21,000×g for 20 min at 4° C. The supernatant was transferred to autosampler vials for LC-MS analysis. Vitamin B species separation was performed using an Agilent 1290 infinity pump and XSelect HSS T3 column (150×2.1 mm, 3.5 μm; Waters Corporation, Milford Mass.). Mobile phase A was 0.1% heptaflurobutyric acid (HFBA, Thermo Fisher, Waltham Mass.) and 0.1% formic acid (FA, Thermo Fisher, Waltham Mass.) in water, mobile phase B was 0.1% HFBA and 0.1% FA in acetonitrile. The injection volume was 10 μL and LC gradient conditions were: 0 min: 0% B; 1 min: 0% B; 7 min: 25% B; 8 min: 25% B; 9 min: 100% B; 10.5 min: 100% B, with 4.5 min of re-equilibration time. MS detection was performed using an Agilent 6230 TOF accurate mass spectrometer with Dual JetStream source operating in positive ionization mode. MS parameters were: gas temp 250° C.; gas flow: 13 L/min; nebulizer pressure: 45 psig; sheath gas temp: 225° C.; sheath gas flow: 12 L/min; VCap: 3,500 V; Fragmentor: 175 V; Skimmer: 65 V; Octopole RF: 750 V. Active mass axis correction was performed using a second nebulizer and pyridine (80.049480) and roxithromycin (837.53185). Data was acquired from m/z 50-1700 at 1.5 spectra/sec. Accurate mass (±20 ppm) and retention time was confirmed relative to the pure standards. Data analysis was performed using MassHunter software (Agilent, Santa Clara Calif.).

human leukemic cells [4] = test: Proliferation / growth of human leukemic cell lines cultured with compound; type: cell-based; settings: for growth of human AML cells in vitro: indicated leukemic cell lines (FIG. 17C, 18C)
Experimental: The average and STDEV of relative cell proliferation are shown.
(§2) Mouse AML cell lines, human AML cell lines, iMEF cell line and 3T3 cell line were infected with virus encoding Cas9 (Addgene 52962, Watertown Mass.) followed with blastcitidin selection to generate Cas9 cell lines. All viral sgRNA infection experiments were performed on Cas9 cell lines. All viral shRNA infection experiments were performed on cell lines carrying rtTA3. Mouse leukemic cell lines including Nras(G12D)/MLL-AF9, MLL-AF9, Nras(G12D)/IDH, Nras(G12D)/NPM1, and IDH/Flt3 were cultured in RPMI medium supplemented with 10% Fetal Bovine Serum (FBS), L-glutamine, penicillin streptomycin, recombinant mouse SCF, IL-3 and IL-6. Human leukemic cell lines MOLM13, M12, Semk2, THP1, and K562 were cultured in RPMI medium supplemented with 10% FBS, L-glutamine, penicillin, and streptomycin. Vitamin B6 depleted medium (VB6−) was prepared by customized pyridoxin (−) RPMI (Gibco, Gaithersburg, Md.) with 10% dialyzed FBS, L-glutamine, penicillin, and streptomycin. Pyridoxin hydrochloride (Sigma, St Louis Mo.) was added back to VB6(−) medium to make the VB6 (+) medium used for leukemia and MEF culture. Control or gene targeting sgRNAs or shRNAs were delivered by lentivirus. Spin infections were performed at 37° C. and 1500 RPM for 60 minutes. After spin infection, viral supernatants were substituted with leukemic cell culture medium. For compound treatment, isoniazid was added in culture medium at indicated concentrations.
(§3) For competition and cell proliferation experiments, mouse or human leukemic cells were infected with viruses encoding sgRNAs or shRNAs. Spin infections were performed at 37 degree and 1500 RPM for 60 minutes. After spin infection, viral supernatants were substituted with leukemic cell culture medium. GFP+ percentage or cell number was monitored during culture using guava flow cytometer. The absolute cell number was measured by using flow cytometry absolute count standard (Bangs Laboratories Inc., Fishers Ind.). The experimental results were analyzed by guavasoft software.

[5] = tested on: Nras(G12D)/MLL-AF9 leukemic cells; test: Metabolite rescue of isoniazid proliferative block in Nras(G12D)/MLL-AF9 leukemic cells; type: cell-based, mouse; settings: exogenous addition of metabolite with isoniazid, day 4 (FIG. 4D-4F)
Text: The average and SEM of fold of cell proliferation are shown. “*” represents p<0.05 of one-way ANOVA test, “**” represents p<0.01 of one-way ANOVA test, “***” represents p<0.001 of one-way ANOVA test. […] The average and SEM of fold of cell proliferation are shown. “*” represents p<0.05 of one-way ANOVA test, “**” represents p<0.01 of one-way ANOVA test, “***” represents p<0.001 of one-way ANOVA test. […] The average and SEM of fold of cell proliferation are shown. “*” represents p<0.05 of one-way ANOVA test, “**” represents p<0.01 of one-way ANOVA test, “***” represents p<0.001 of one-way ANOVA test.

bone marrow HSPCs = test: Proliferation of bone marrow HSPCs cultured with compound; type: cell-based, mouse
Text: The average and STDEV of relative cell proliferation of 3 replicates are shown.
Bone marrow hematopoietic stem and progenitor cell isolation, culture, and compound treatment. For isolation of bone marrow cells, the bone marrow from the femur and tibia was flushed into ice cold PBS buffer. After red blood cell lysis with ammonium chloride (STEMCELL 07850, Vancouver Canada), the bone marrow cells were resuspended with PBS and filtered into a round bottom tube with cell strainer cap. The hematopoietic cells lineages were stained with biotin mouse lineage panel (BD Biosciences 559971, San Jose Calif.), then isolated by magnetic beads separation. For c-Kit positive cells, mouse hematopoietic cells were isolated from bone marrow using MACS CD117 isolation system. Purified bone marrow cells were cultured in RPMI medium supplemented with recombinant mouse SCF, IL-3, and IL-6. Control or Pdxk targeting sgRNAs or shRNAs were delivered by lentivirus. Spin infections were performed at 37 degree and 1500 RPM for 60 minutes. After spin infection, viral supernatants were substituted with leukemic cell culture medium. For compound treatment, isoniazid was added in culture at indicated concentrations.

PLP = test: Intracellular PLP levels by HPLC-MS in Nras(G12D)/MLL-AF9 leukemic cells cultured with isoniazid; type: cell-based, mouse; settings: day 5 of culture, HPLC-MS (FIG. 2E)
Experimental: The abundance of PLP was measured by high-performance liquid chromatography-mass spectrometry (HPLC-MS) and normalized to the level [^3D]-labeled PLP (internal control). The average and STDEV are shown. Western blot analysis was performed to measure the expression levels of PDXK protein.
as §1
In each case, 2 million cells were collected by centrifugation at 440×g, media was aspirated and 1004 of ice-cold 10% trichloroacetic acid with or without 100 ng/mL d3-pyridoxal (d3-PL), d3-pyridoxine (d3-PN), d3-pyridoxamine (d3-PM), d3-pyridoxal phosphate (d3-PLP) (IsoSciences LLC, Ambler Pa.) was added for metabolite extraction. For experiments involving isoniazid treatment, cells were washed once with PBS to remove residual drug and minimize post-lysis reactions between isoniazid and PLP, which was confirmed by monitoring the d3-PLP internal standard. […]

mouse leukemic cells = test: Proliferation of mouse leukemic cell lines cultured with compound; type: cell-based; settings: mouse leukemic cell lines with different genetic drivers, day 6 (FIG. 1I)
Experimental: as §2, with “Pyridoxin hydrochloride (Sigma, St Louis Mo.) was added back to VB6(−) medium to make the VB6 (+) medium used for leukemia and MEF culture. Control or gene targeting sgRNAs or shRNAs were delivered by lentivirus. Spin infections were performed at 37° C. and 1500 RPM for 60 minutes. After spin infection, viral supernatants were substituted with leukemic cell culture medium. For compound treatment, isoniazid was added in culture medium at indicated concentrations.” left out
as §3, with “Spin infections were performed at 37 degree and 1500 RPM for 60 minutes. After spin infection, viral supernatants were substituted with leukemic cell culture medium.” left out

[6] = tested on: human HL60 (Human promyelocytic leukemia) cells; test: Human HL60 cells cultured with myriocin; type: cell-based; settings: day 4 of culture (FIG. 33B)

`NOCC(=O)O` [AOA, aminooxyacetic acid] was tested, and the “viability of leukemic cells in vitro” value [1] was “reduced the viability”, the animal survival [2] was “extended survival” and the “leukemia disease progression (luciferase signal)” value (from here on “leukemia disease progression”) [2] was “significantly delayed leukemia disease maintenance”. The “viability of leukemic cells in vitro” value (human leukemic cells [3]) was “reduced the viability”.
For `CC[C@H](CO)Nc1nc(N(C)Cc2ccccc2)c2ncn(C(C)C)c2n1` [aftin-4], the PDXK inhibition (PDXK) was “can nhibit PDXK”, the “intracellular levels of PLP” value (PDXK) was “reduced intracellular levels of PLP” and the “growth of human AML cells in vitro” value (human leukemic cells [4]) was “can suppress the growth; also recorded: inhibited the growth”.
For `NC(=O)C[C@H](N)C(=O)O` [asparagine], the “rescue of proliferative block produced by isoniazid” value (“rescue” for short) [5] was “partially rescued”.
In the case of `COCc1c(CO)cnc(C)c1O` [gingkotoxin], the PDXK inhibition (PDXK) is reported as “can inhibit PDXK”, the “intracellular levels of PLP” value (PDXK) is reported as “reduced intracellular levels of PLP” and the “intracellular levels of PLP” value (PDXK; listed as ginkgotoxin) is reported as “reduce intracellular levels of PLP”. For the same compound, the animal survival [2] was “improved survival”, the “leukemia disease progression” value [2] was “slowed down disease progression” and the “proliferation of bone marrow lineage negative HSPCs” value (bone marrow HSPCs; bone marrow lineage negative HSPCs, day 6 (FIG. 26A-26B)) was “little effect”. For the same compound, the “growth of human AML cells in vitro” value (human leukemic cells [4]) was “suppressed tumor growth” and the “growth of human AML cells in vitro” value (human leukemic cells [4]; listed as ginkgotoxin) was “can suppress the growth”.
With `NNC(=O)c1ccncc1` [isoniazid] the “intracellular PLP levels” value (PLP) was “reduced intracellular PLP levels”, the animal survival [2] was “produced a survival advantage” and the “leukemia disease progression” value [2] was “delayed disease progression”. For the same compound, the “reduction of PLP in plasma and bone marrow cells” value ([2]; isoniazid 90 mg/kg intraperitoneally daily, day 12 post transplant, HPLC-MS (FIG. 13B)) was about 25%, the “proliferation of bone marrow HSPCs” value (bone marrow HSPCs) was “only a subtle reduction” and the “proliferation of bone marrow lineage negative HSPCs” value (bone marrow HSPCs) was “little effect”. For the same compound, the “proliferation of human leukemic cells” value (human leukemic cells [4]; human leukemic cell lines, day 6 of culture (FIG. 7G, 25A-25C)) was “blocked proliferation” and the “proliferation of mouse leukemic cells” value (mouse leukemic cells) was “blocked proliferation”.
In the case of `CCCCCCC(=O)CCCCCC/C=C/C[C@@H](O)[C@H](O)[C@@](N)(CO)C(=O)O` [myriocin], the “viability of leukemic cells in vitro” value [1] is reported as “reduced the viability” and the “sensitivity of HL60 cells to treatment” value [6] is reported as “less sensitive”.
For `NCCCCN` [putrescine], the “rescue” value [5] was “partially rescued”.
For `O=c1ccn([C@@H]2O[C@H](CO)[C@@H](O)[C@H]2O)c(=O)[nH]1` [uridine], the “rescue” value [5] was “partially rescued”.
